Consider one substance from patent US11666657B2, “Protein-drug conjugates and their use in the treatment of cancers” (UNIVERSITE DE STRASBOURG, priority 2017, dated 2023).

One may read the IC50 as the concentration at which inhibition is half-maximal. A low value points to greater potency.

Several values for one entry are separate records, joined by “and”; a condition that tells them apart may be missing. Identical values can stand only once.

Assay [1] deals with BT-474 ductal carcinoma tumors. As to the kind of experiment: In vivo anti-tumour efficacy in nude mice bearing subcutaneous BT-474 tumors. Details: species or system Balb/c nude mice. Particulars: single i.v. injection 1 mg/kg, BT-474 tumours in nude mice, versus control group.
Procedure: In vivo therapeutic efficacy of the ADCs of this invention was evaluated in nude mice bearing subcutaneous BT-474 tumors.
Twenty (20) 6 to 8 week-old Balb/c nude (CByJ.Cg-Foxn1nu/J) females (Charles River Laboratories, L'Arbresles, France) were implanted with BT-474 ductal carcinoma cells (2×10^7) suspended in 200 μL RPMI 1640 medium (Sigma Aldrich) containing matrigel (50:50, v:v, BD Biosciences, France). The injection was performed subcutaneously in the right flank. One day prior implant, the animals were gamma irradiated (2 Gy, ^60Co). The cell transplant was considered as day 0 (D0). Once tumours reached a volume of 200-300 mm^3, mice were randomized according to their individual tumour volume into four distinct groups. The variance of mouse distribution within the groups was analysed to confirm the homogeneity of the groups.
Animal viability, behaviour and well-being were recorded daily; body weight was measured twice a week; and tumour volume was assessed twice a week with a calliper. The volume of the tumour was estimated formula as follow: volume=(width^2×length)/2.
Relative tumour volumes (RTV) were calculated according to the following formula:
Specifically, a principal component analysis (PCA) was carried out using XL Stat software (Addinsoft, Paris, France) in order to compare antitumour activity of T-DM1 and T-APN-Gal-MMAE. […]
The test system of assay [2] is HER2+ SK-BR-3 cells. As to the kind of experiment: In vitro efficacy on cell viability (CellTiter 96 AQueous One Solution Cell Proliferation Assay), HER2+ SK-BR-3. It counts as cell-based. The conditions noted are these: 96 hrs treatment. The method, then: Antiproliferative activity of the ADCs according to this invention was evaluated on two cell lines and compared with that of the commercial ADC Kadcyla® (T-DM1).
HER2^+ SK-BR-3 and HER2^− MDA-MB-231 cell lines were grown in DMEM—high glucose (4,500 mg/L) supplemented with 10% fetal calf serum, Penicillin (200 U/mL)-Streptomycin (200 μg/mL) and L-glutamin (4 mM) (all from Sigma Aldrich, St Louis, Mo., USA). The effects of the payloads and ADCs on these cell lines were assessed using CellTiter 96® AQueous One Solution Cell Proliferation Assay (Promega, Madison, Wis., USA). The cytotoxic agent MMAE was used as a positive control of cell death and every condition was performed as triplicates. SKBR-3 cells were plated in 96-well plates at 3,000 cells/well for ADC tests and at 5,000 cells/well for payload tests, in 100 μL medium. MDA-MB231 cells were plated in 96-well plates at 15,000 cells/well, in 100 μL medium. The cells were allowed to adhere for 24 hrs at 37° C. in a humidified atmosphere of 5% CO2. Medium was then removed and replaced by payloads, ADCs, or MMAE, at different concentrations in fresh medium. […] Absorbance was measured at 515 nm using a 96-well plate reader (Flx-Xenius XM, Safas, Monaco), and to estimate the percentage of viable cells according to each treatment, the negative controls were considered as 100% viability. […]

For trastuzumab emtansine [T-DM1], in assay [1], the “effect on tumour growth” value was “not statistically significant”. In addition, the IC50 in assay [2] is 0.033 nM and 0.0342 nM.
